Key:
Assay in all cases: Test A postemergence
Format in all cases: in vivo
[1] = system: blackgrass (Alopecurus myosuroides); settings: Alopecurus myosuroides, post-emergence, 240 h, read-out: Plant response rating, Blackgrass; for pest or weed control at 125 g/ha: 125 g ai/ha, visual injury after approximately 10 d, 0 to 100 scale where 0 is no effect and 100 is complete control; for pest or weed control at 500 g/ha: 500 g ai/ha, postemergence, visual injury, 0 to 100 scale (0 no effect, 100 complete control), approx. 10 d
Summary of the method: (§1)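 Preemergence directed soil spray on seeded pots, or postemergence application to plants 2–10 cm, one- to two-leaf. Solvent mixture non-phytotoxic, with surfactant. Scored ~10 d later, visually, 0–100 vs untreated.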

[2] = system: ryegrass, Italian (Italian ryegrass, Lolium multiflorum); settings: Lolium multiflorum, post-emergence, 240 h, read-out: Plant response rating, Ryegrass, Italian; for pest or weed control at 125 g/ha: 125 g ai/ha, visual injury after approximately 10 d, 0 to 100 scale where 0 is no effect and 100 is complete control; for pest or weed control at 500 g/ha: 500 g ai/ha, postemergence, visual injury, 0 to 100 scale (0 no effect, 100 complete control), approx. 10 d
Summary of the method: as §1

[3] = system: pigweed (Amaranthus retroflexus); settings: Amaranthus retroflexus, post-emergence, 240 h, read-out: Plant response rating, Pigweed; for pest or weed control at 125 g/ha: 125 g ai/ha, visual injury after approximately 10 d, 0 to 100 scale where 0 is no effect and 100 is complete control; for pest or weed control at 500 g/ha: 500 g ai/ha, postemergence, visual injury, 0 to 100 scale (0 no effect, 100 complete control), approx. 10 d
Summary of the method: as §1

corn (Zea mays) = settings: Zea mays, post-emergence, 240 h; for Corn plant response rating (crop injury, 0 = no effect, 100 = complete kill) at 125 g/ha: 125 g ai/ha, visual injury after approximately 10 d, 0 to 100 scale where 0 is no effect and 100 is complete control; for Corn plant response rating (crop injury, 0 = no effect, 100 = complete kill) at 500 g/ha: 500 g ai/ha, postemergence, visual injury, 0 to 100 scale (0 no effect, 100 complete control), approx. 10 d
Summary of the method: as §1

[4] = system: Galium (catchweed bedstraw, Galium aparine); settings: Galium, post-emergence, 240 h, read-out: Plant response rating, Galium; for pest or weed control at 125 g/ha: 125 g ai/ha, visual injury after approximately 10 d, 0 to 100 scale where 0 is no effect and 100 is complete control; for pest or weed control at 500 g/ha: 500 g ai/ha, postemergence, visual injury, 0 to 100 scale (0 no effect, 100 complete control), approx. 10 d
Summary of the method: as §1

[5] = system: wheat (Triticum aestivum); settings: Triticum aestivum, post-emergence, 240 h, read-out: Plant response rating, Wheat; for plant injury at 125 g/ha: 125 g ai/ha, visual injury after approximately 10 d, 0 to 100 scale where 0 is no effect and 100 is complete control; for plant injury at 500 g/ha: 500 g ai/ha, postemergence, visual injury, 0 to 100 scale (0 no effect, 100 complete control), approx. 10 d
Summary of the method: as §1

[6] = Postemergence, 31 g ai/ha, visual injury after approx. 10 d, 0 to 100 scale, 0 no effect, 100 complete control

| SMILES | pest or weed control at 125 g/ha ([1]; Postemergence) | pest or weed control at 125 g/ha ([2]; Postemergence) | pest or weed control at 125 g/ha ([3]; Postemergence) | Corn plant response rating (crop injury, 0 = no effect, 100 = complete kill) at 125 g/ha (corn (Zea mays); Postemergence) | pest or weed control at 125 g/ha ([4]; Postemergence) | plant injury at 125 g/ha ([5]; Postemergence) | pest or weed control at 31 g/ha [1, 6] | pest or weed control at 31 g/ha [2, 6] | pest or weed control at 31 g/ha [3, 6] | Corn plant response rating (crop injury, 0 = no effect, 100 = complete kill) at 31 g/ha (corn (Zea mays); [6]) | pest or weed control at 31 g/ha [4, 6] | plant injury at 31 g/ha [5, 6] | pest or weed control at 500 g/ha [1] | pest or weed control at 500 g/ha [2] | pest or weed control at 500 g/ha [3] | Corn plant response rating (crop injury, 0 = no effect, 100 = complete kill) at 500 g/ha (corn (Zea mays)) | pest or weed control at 500 g/ha [4] | plant injury at 500 g/ha [5] |
| --- | --- | --- | --- | --- | --- | --- | --- | --- | --- | --- | --- | --- | --- | --- | --- | --- | --- | --- |
| CCOc1cccc([C@H]2CN(C)C(=O)[C@@H]2C(=O)Nc2cccc(F)c2F)c1 [Compound 956] | 40% | 50% | 0% | 50% | 40% | 30% | – | – | – | – | – | – | – | – | – | – | – | – |
| CN1C[C@H](c2csc(C(F)(F)F)c2)[C@@H](C(=O)Nc2cccc(F)c2F)C1=O [Compound 959] | 30% | 30% | 0% | 30% | 40% | 20% | – | – | – | – | – | – | – | – | – | – | – | – |
| CN1C[C@H](c2cc(C(F)(F)F)cs2)[C@@H](C(=O)Nc2ccccc2F)C1=O [Compound 962] | 20% | 20% | 0% | 0% | 30% | 30% | – | – | – | – | – | – | – | – | – | – | – | – |
| CC(C)COc1cccc([C@H]2CNC(=O)[C@@H]2C(=O)Nc2cccc(F)c2F)c1 [Compound 965] | 30% | 0% | 0% | 30% | 40% | 20% | – | – | – | – | – | – | – | – | – | – | – | – |
| CC(C)COc1cccc([C@H]2CNC(=O)[C@@H]2C(=O)Nc2ccc(F)cc2F)c1 [Compound 966] | 20% | 0% | 0% | 0% | 20% | 0% | – | – | – | – | – | – | – | – | – | – | – | – |
| CN1C[C@H](c2cc(F)cc(F)c2)[C@@H](C(=O)Nc2ccc(C(F)(F)F)cc2)C1=O [Compound 968] | 0% | 0% | 0% | 0% | 0% | 0% | – | – | – | – | – | – | – | – | – | – | – | – |
| CCOc1cc([C@H]2CN(C)C(=O)[C@@H]2C(=O)Nc2cccc(F)c2F)cc(C(F)(F)F)c1 [Compound 971] | 50% | 50% | 50% | 70% | 40% | 50% | 40% | 20% | 20% | 70% | 20% | 30% | – | – | – | – | – | – |
| CSc1ccccc1NC(=O)[C@H]1C(=O)NC[C@@H]1c1cc(F)cc(Cl)c1 [Compound 977] | 0% | 0% | 30% | 0% | 40% | 0% | – | – | – | – | – | – | – | – | – | – | – | – |
| CN1C[C@H](c2cc(F)cc(Cl)c2)[C@@H](C(=O)Nc2ccccc2S(C)(=O)=O)C1=O [Compound 979] | 60% | 20% | 40% | 30% | 40% | 50% | – | – | – | – | – | – | – | – | – | – | – | – |
| COc1ccc([C@H]2CN(C)C(=O)[C@@H]2C(=O)Nc2ccccc2SC)cc1C(F)(F)F [Compound 991] | 0% | 0% | 0% | 0% | 0% | 0% | – | – | – | – | – | – | – | – | – | – | – | – |
| CN1C[C@H](c2cc(F)cc(F)c2)[C@@H](C(=O)Nc2cc(O)ccc2F)C1=O [Compound 992] | 0% | 0% | 0% | 0% | 0% | 0% | – | – | – | – | – | – | – | – | – | – | – | – |
| CN1C[C@H](c2cc(F)cc(C(F)(F)F)c2)[C@@H](C(=O)Nc2ccc(F)c(F)c2F)C1=O [Compound 993] | 70% | 50% | 30% | 80% | 60% | 50% | – | – | – | – | – | – | – | – | – | – | – | – |
| CN1CC[C@H](c2ccc(OC(F)(F)F)cc2)[C@@H](C(=O)Nc2ccccc2C(F)(F)F)C1=O [Compound 998] | 0% | 0% | 0% | 0% | 0% | 0% | – | – | – | – | – | – | – | – | – | – | – | – |
| CN1CC[C@H](c2ccc(OC(F)(F)F)cc2)[C@@H](C(=O)Nc2cccc(F)c2F)C1=O [Compound 999] | 0% | 0% | 0% | 0% | 0% | 0% | – | – | – | – | – | – | – | – | – | – | – | – |
| Cc1ccc([C@H]2CN(C)C(=O)[C@@H]2C(=O)Nc2cccc(F)c2F)cc1Cl [Compound 1013] | 0% | 0% | 0% | 80% | 70% | 40% | – | – | – | – | – | – | 40% | 60% | 40% | 90% | 70% | 60% |
| COc1ccc([C@H]2CN(C)C(=O)[C@@H]2C(=O)Nc2cccc(F)c2F)cc1F [Compound 1021] | 20% | 40% | 0% | 60% | 50% | 40% | – | – | – | – | – | – | 50% | 70% | 50% | 80% | 70% | 60% |
| Cc1cc([C@H]2CN(C)C(=O)[C@@H]2C(=O)Nc2cccc(F)c2F)cc(C)c1Br [Compound 1024] | 0% | 30% | 30% | 70% | 60% | 0% | – | – | – | – | – | – | 20% | 30% | 50% | 70% | 60% | 30% |
